Data reported in ChEMBL document CHEMBL4673405, “Novel Linker Variants of Antileishmanial/Antitubercular 7-Substituted 2-Nitroimidazooxazines Offer Enhanced Solubility” (ACS Med Chem Lett, 2021).
In brackets after ≈: the same amount, converted by molar mass.

How the values were obtained:
[1] = system: Leishmania infantum; assay: Antileishmanial activity against Leishmania infantum MHOM/MA(BE)/67 amastigotes infected in mouse peritoneal macrophages incubated for 5 days by Giemsa staining based assay; format: functional, organism-based; details: MHOM/MA(BE)/67, Peritoneal macrophage, 120 h
[2] = system: MRC5; assay: Cytotoxicity against human MRC5 cells assessed as reduction in cell viability measured after 72 hrs by resazurin assay; format: ADME, cell-based; details: MRC5, 72 h
[3] = Volume of distribution at steady state in BALB/c mouse at 1 mg/kg, iv measured up to 24 hrs by LC-MS/MS analysis; details: in vivo
[4] = Initial plasma concentration in BALB/c mouse at 1 mg/kg, iv measured up to 24 hrs by LC-MS/MS analysis
[5] = system: Leishmania donovani; assay: (§1) Antileishmanial activity against Leishmania donovani MHOM/ET/67/HU3 amastigotes infected in BALB/c mouse model of visceral leishmaniasis assessed as reduction in parasite burden in spleen at 25 mg/kg, po administered once daily for 5 consecutive days starting after 7 days post-infection by microscopic analysis relative to control; format: functional; design: scale not given: the % may be the effect or the level left; details: time 5 day
[6] = in vivo; details: BALB/c, mouse, po, 25 mg/kg
Description: AUClast in BALB/c mouse at 25 mg/kg, po measured up to 24 hrs by LC-MS/MS analysis

[7] = system: Leishmania donovani; assay: as §1, with “liver” for “spleen”, “12.5” for “25”; format: functional; design: scale not given: the % may be the effect or the level left; details: time 5 day
[8] = system: Leishmania donovani; assay: as §1, with “liver” for “spleen”, “50” for “25”; format: functional; design: scale not given: the % may be the effect or the level left; details: time 5 day
[9] = Half life in BALB/c mouse at 25 mg/kg, po measured up to 24 hrs by LC-MS/MS analysis; format: ADME, organism-based; details: in vivo
[10] = AUClast in BALB/c mouse at 1 mg/kg, iv measured up to 24 hrs by LC-MS/MS analysis; details: in vivo
[11] = Aqueous solubility of the compound at pH 7 sonicated for 15 mins by HPLC analysis; details: aqueous medium
[12] = in vivo; details: BALB/c, mouse, po, 25 mg/kg; remark: listed apart in the source
[13] = system: Leishmania donovani; assay: as §1, with “50” for “25”; format: functional; design: scale not given: the % may be the effect or the level left; details: time 5 day
[14] = system: Leishmania donovani; assay: as §1, with “liver” for “spleen”; format: functional; design: scale not given: the % may be the effect or the level left; details: time 5 day
[15] = in vivo; details: BALB/c, mouse, po, 25 mg/kg; remark: listed apart in the source
[16] = Half life in BALB/c mouse at 1 mg/kg, iv measured up to 24 hrs by LC-MS/MS analysis; details: in vivo
[17] = Clearance in BALB/c mouse at 1 mg/kg, iv measured up to 24 hrs by LC-MS/MS analysis; details: in vivo
[18] = system: Leishmania donovani; assay: Antileishmanial activity against Leishmania donovani MHOM/ET/67/HU3 amastigotes infected in po dosed BALB/c mouse model of visceral leishmaniasis assessed as reduction in parasite burden in liver at administered once daily for 5 consecutive days starting after 7 days post-infection by microscopic analysis; format: functional; details: MHOM/ET/67/HU3, po, 120 h, time 5 day
[19] = in vivo; details: BALB/c, mouse, po, 25 mg/kg; remark: listed apart in the source
[20] = Solubility of the compound in 0.1 M HCl at pH 1 sonicated for 15 mins by HPLC analysis; format: physicochemical
[21] = system: Mycobacterium tuberculosis; assay: Antitubercular activity against Mycobacterium tuberculosis H37Rv assessed as minimum inhibitory concentration required to inhibit 90% of bacterial growth incubated for 7 days under aerobic condition by microplate Alamar blue assay; format: functional; details: 168 h, time 7 day
[22] = system: Mycobacterium tuberculosis; assay: Antitubercular activity against Mycobacterium tuberculosis H37Rv assessed as minimum inhibitory concentration required to inhibit 90% of bacterial growth incubated for 10 days under anerobic condition followed by incubation under ambient gaseous condition for 7 days by low oxygen recovery assay; format: functional; details: 408 h, time 17 day
[23] = Microsomal stability in human liver microsomes assessed as parent compound remaining at 1 uM measured up to 60 mins in presence of NADPH by LC-MS/MS analysis
[24] = Microsomal stability in mouse liver microsomes assessed as parent compound remaining at 1 uM measured up to 60 mins in presence of NADPH by LC-MS/MS analysis
[25] = system: Leishmania donovani; assay: as §1, with “liver” for “spleen”, “6.25” for “25”; format: functional; design: scale not given: the % may be the effect or the level left; details: time 5 day

| SMILES | IC50 [1] [nM] | IC50 [2] [nM] | solubility at 0.25 h [11] [µg/mL] | further results |
| --- | --- | --- | --- | --- |
| CC1(COCC(=O)Nc2ccc(OC(F)(F)F)cc2)CCn2cc([N+](=O)[O-])nc2O1 (stereo not drawn) | 490 | ≥ 40000 | – | – |
| CN(CC1(C)CCn2cc([N+](=O)[O-])nc2O1)c1ccc(C(F)(F)F)nc1 (stereo not drawn) | 2200 | ≥ 40000 | – | – |
| CC1(CNC(=O)c2ccccc2OC(F)(F)F)CCn2cc([N+](=O)[O-])nc2O1 (stereo not drawn) | 9900 | ≥ 40000 | – | – |
| CC1(COC(=O)Nc2ccc(OC(F)(F)F)cc2)CCn2cc([N+](=O)[O-])nc2O1 (stereo not drawn) | 360 | ≥ 40000 | 11 (≈ 26.4 µM) | Vd at 24 h [3]: 1.2 L/kg; C0 at 24 h [4]: 800 ng/mL; Activity [5]: 96%; AUC(0-t) at 24 h [6]: 57800 ng·h/mL; Activity [7]: 7%; Activity [8]: >99%; half-life [9]: 1.7 h; AUC(0-t) at 24 h [10]: 2070 ng·h/mL; Tmax at 24 h [12]: 0.75 h; Activity [13]: 100%; Activity [14]: 97%; Cmax at 24 h [15]: 13500 ng/mL; half-life at 24 h [16]: 1.3 h; clearance at 24 h [17]: 8.5 mL/min/kg; ED50 [18]: 16 mg/kg; bioavailability at 24 h [19]: 100% |
| CC1(CNC(=O)NCc2ccc(OC(F)(F)F)cc2)CCn2cc([N+](=O)[O-])nc2O1 (stereo not drawn) | 1800 | ≥ 40000 | – | – |
| CC1(COC(=O)Nc2ccccc2OC(F)(F)F)CCn2cc([N+](=O)[O-])nc2O1 (stereo not drawn) | 640 | ≥ 40000 | – | – |
| CC1(CNC(=O)COc2ccc(OC(F)(F)F)cc2)CCn2cc([N+](=O)[O-])nc2O1 (stereo not drawn) | 1700 | ≥ 40000 | – | – |
| CC1(CNc2ccc(Cl)cc2)CCn2cc([N+](=O)[O-])nc2O1 (stereo not drawn) | 290 | ≥ 40000 | – | – |
| CN(CC1(C)CCn2cc([N+](=O)[O-])nc2O1)c1ccc(OC(F)(F)F)cc1 (stereo not drawn) | 270 | ≥ 40000 | 1.5 (≈ 3.88 µM) | Activity [8]: 58%; solubility at 0.25 h [20]: 4.6 µg/mL (≈ 11.9 µM) |
| CC1(COCc2ccc(OC(F)(F)F)cc2)CCn2cc([N+](=O)[O-])nc2O1 (stereo not drawn) | 300 | ≥ 40000 | – | – |
| CC1(CNC(=O)c2ccc(OC(F)(F)F)cc2)CCn2cc([N+](=O)[O-])nc2O1 (stereo not drawn) | 1400 | ≥ 40000 | 78 (≈ 195 µM) | Activity [8]: 71% |
| CC1(CNc2ccc(F)cc2)CCn2cc([N+](=O)[O-])nc2O1 (stereo not drawn) | 930 | ≥ 40000 | – | – |
| C[C@]1(COC(=O)Nc2ccc(OC(F)(F)F)cc2)CCn2cc([N+](=O)[O-])nc2O1 | 140 | ≥ 40000 | 6.3 (≈ 15.1 µM) | MIC90 [21]: 0.085 µM (≈ 0.0354 µg/mL); MIC90 [22]: 1 µM (≈ 0.416 µg/mL); Activity [7]: 40%; Activity [14]: 89% |
| CC1(CNC(=O)c2cccc(OC(F)(F)F)c2)CCn2cc([N+](=O)[O-])nc2O1 (stereo not drawn) | 1300 | ≥ 40000 | 14 (≈ 35 µM) | remaining at 1 h, 1 µM [23]: 58%; remaining at 1 h, 1 µM [24]: 36% |
| CC1(CNC(=O)OCc2ccc(OC(F)(F)F)cc2)CCn2cc([N+](=O)[O-])nc2O1 (stereo not drawn) | 160 | ≥ 40000 | 28 (≈ 65.1 µM) | – |
| O=[N+]([O-])c1cn2c(n1)OC(CNc1ccc(OC(F)(F)F)cc1)CC2 (stereo not drawn) | 150 | ≥ 40000 | – | – |
| CN(CC1(C)CCn2cc([N+](=O)[O-])nc2O1)c1ccc(Cl)cc1 (stereo not drawn) | 310 | ≥ 40000 | – | – |
| CC1(COC(=O)N(Cc2ccc(OC(F)(F)F)cc2)C(=O)NCc2ccc(OC(F)(F)F)cc2)CCn2cc([N+](=O)[O-])nc2O1 (stereo not drawn) | 1300 | ≥ 40000 | – | – |

| SMILES | IC50 [1] [nM] | IC50 [2] [nM] | solubility at 0.25 h [11] [µg/mL] | further results |
| --- | --- | --- | --- | --- |
| CC1(CNC(=O)Nc2ccc(OC(F)(F)F)cc2)CCn2cc([N+](=O)[O-])nc2O1 (stereo not drawn) | 1400 | ≥ 40000 | 121 (≈ 291 µM) | Activity [8]: 36%; remaining at 1 h, 1 µM [23]: 54%; remaining at 1 h, 1 µM [24]: 39% |
| CC1(COc2ccc(Cl)cc2)CCn2cc([N+](=O)[O-])nc2O1 (stereo not drawn) | 130 | ≥ 40000 | – | – |
| CN(CC1(C)CCn2cc([N+](=O)[O-])nc2O1)c1ccc(F)cc1 (stereo not drawn) | 480 | ≥ 40000 | – | – |
| O=C(NCc1ccc(OC(F)(F)F)cc1)OCC1CCn2cc([N+](=O)[O-])nc2O1 (stereo not drawn) | 180 | ≥ 40000 | – | – |
| O=C(NCC1CCn2cc([N+](=O)[O-])nc2O1)Nc1ccc(OC(F)(F)F)cc1 (stereo not drawn) | 3300 | ≥ 40000 | – | – |
| CC1(COc2ccc(OC(F)(F)F)cc2)CCn2cc([N+](=O)[O-])nc2O1 (stereo not drawn) | – | – | – | Activity [7]: 100%; Activity [14]: 100% |
| CN(CC1CCn2cc([N+](=O)[O-])nc2O1)c1ccc(OC(F)(F)F)cc1 (stereo not drawn) | 220 | ≥ 40000 | – | – |
| O=C(Nc1ccc(OC(F)(F)F)cc1)OCC1CCn2cc([N+](=O)[O-])nc2O1 (stereo not drawn) | 360 | ≥ 40000 | 4.5 (≈ 11.2 µM) | Vd at 24 h [3]: 1.6 L/kg; C0 at 24 h [4]: 740 ng/mL; AUC(0-t) at 24 h [6]: 35400 ng·h/mL; half-life [9]: 1.6 h; AUC(0-t) at 24 h [10]: 1170 ng·h/mL; Tmax at 24 h [12]: 1 h; Cmax at 24 h [15]: 9600 ng/mL; half-life at 24 h [16]: 1.2 h; clearance at 24 h [17]: 14 mL/min/kg; bioavailability at 24 h [19]: 100% |
| O=C(NCc1ccc(OC(F)(F)F)cc1)N(Cc1ccc(OC(F)(F)F)cc1)C(=O)OCC1CCn2cc([N+](=O)[O-])nc2O1 (stereo not drawn) | 790 | ≥ 40000 | – | – |
| CC1(CNS(=O)(=O)c2ccc(OC(F)(F)F)cc2)CCn2cc([N+](=O)[O-])nc2O1 (stereo not drawn) | 2200 | ≥ 40000 | – | – |
| CC1(COC(=O)NCc2ccc(OC(F)(F)F)cc2)CCn2cc([N+](=O)[O-])nc2O1 (stereo not drawn) | 320 | ≥ 40000 | 117 (≈ 272 µM) | – |
| CC1(CNCc2ccc(OC(F)(F)F)cc2)CCn2cc([N+](=O)[O-])nc2O1 (stereo not drawn) | 130 | ≥ 40000 | 124 (≈ 321 µM) | solubility at 0.25 h [20]: 33000 µg/mL (≈ 85400 µM) |
| CC1(CNc2ccc(OC(F)(F)F)cc2)CCn2cc([N+](=O)[O-])nc2O1 (stereo not drawn) | 180 | ≥ 40000 | 3 (≈ 8.06 µM) | Activity [8]: >99%; solubility at 0.25 h [20]: 10 µg/mL (≈ 26.9 µM); Activity [25]: 29% |
| CC1(COc2ccc(F)cc2)CCn2cc([N+](=O)[O-])nc2O1 (stereo not drawn) | 450 | ≥ 40000 | – | – |
| C[C@@]1(COC(=O)Nc2ccc(OC(F)(F)F)cc2)CCn2cc([N+](=O)[O-])nc2O1 | 200 | ≥ 40000 | 7.9 (≈ 19 µM) | Activity [7]: 31%; Activity [14]: 51% |
| CC1(CNS(=O)(=O)c2cccc(OC(F)(F)F)c2)CCn2cc([N+](=O)[O-])nc2O1 (stereo not drawn) | 2000 | ≥ 40000 | – | – |
| O=C(NCC1CCn2cc([N+](=O)[O-])nc2O1)c1ccc(OC(F)(F)F)cc1 (stereo not drawn) | 1500 | ≥ 40000 | – | – |
| CC1(CNC(=O)Cc2ccc(OC(F)(F)F)cc2)CCn2cc([N+](=O)[O-])nc2O1 (stereo not drawn) | 2000 | ≥ 40000 | – | – |
